Test results reported in PubChem BioAssay (NCI).
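Test compounds were applied to cells in 96-well plates for 48 hours at 5 doses. Definition used: TGI = concentration required for complete inhibition of growth.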

Assays:
Assay in all cases: inhibition of tumour cell growth, NCI panel, 48 h
[1] = tested on: EKVX NSCLC
[2] = tested on: HT29 colon
[3] = tested on: UACC-62 melanoma
[4] = tested on: HL-60(TB) leukemia
[5] = tested on: HOP-62 NSCLC
[6] = tested on: HCC-2998 colon
[7] = tested on: HOP-92 NSCLC
[8] = tested on: KM12 colon
[9] = tested on: K-562 leukemia
[10] = tested on: U251 CNS
[11] = tested on: KM20L2 colon
[12] = tested on: SNB-19 CNS
[13] = tested on: UO-31 renal
[14] = tested on: HCT-116 colon
[15] = tested on: OVCAR-8 ovarian
[16] = tested on: TK-10 renal
[17] = tested on: DMS 114 small cell lung
[18] = tested on: SR leukemia
[19] = tested on: M14 melanoma
[20] = tested on: SN12C renal
[21] = tested on: SNB-75 CNS
[22] = tested on: NCI-H522 lung
[23] = tested on: UACC-257 melanoma
[24] = tested on: DMS 273 small cell lung
[25] = tested on: NCI-H23 lung
[26] = tested on: LXFL 529 NSCLC
[27] = tested on: COLO 205 colon
[28] = tested on: SK-MEL-2 melanoma
[29] = tested on: IGROV1 ovarian
[30] = tested on: SF-539 CNS
[31] = tested on: OVCAR-5 ovarian
[32] = tested on: OVCAR-3 ovarian
[33] = tested on: RXF 393 renal
[34] = tested on: ACHN renal
[35] = tested on: CAKI-1 renal
[36] = tested on: SW-620 colon
[37] = tested on: CCRF-CEM leukemia
[38] = tested on: SF-295 CNS
[39] = tested on: A549 NSCLC
[40] = tested on: SK-OV-3 ovarian
[41] = tested on: SK-MEL-5 melanoma
[42] = tested on: SF-268 CNS
[43] = tested on: 786-0 renal
[44] = tested on: OVCAR-4 ovarian
[45] = tested on: LOX IMVI melanoma
[46] = tested on: HCT-15 colon
[47] = tested on: RPMI-8226 leukemia
[48] = tested on: HOP-18 NSCLC
[49] = tested on: M19-MEL melanoma
[50] = tested on: NCI-H226 lung
[51] = tested on: RXF-631 renal
[52] = tested on: SK-MEL-28 melanoma
[53] = tested on: MALME-3M melanoma
[54] = tested on: DLD-1 colon
[55] = tested on: A498 renal
[56] = tested on: NCI-H460 lung
[57] = tested on: MOLT-4 leukemia
[58] = tested on: SNB-78 CNS

`CCN(C(=N)C#N)c1ccccc1` was tested, and the TGI [1] was greater than 100 µM, the TGI [2] was greater than 100 µM and the TGI [3] was greater than 100 µM. The TGI [4] was greater than 70.2 µM, the TGI [5] was greater than 100 µM and the TGI [6] was greater than 100 µM. It also gave a TGI [7] greater than 100 µM, a TGI [8] greater than 100 µM and a TGI [9] greater than 100 µM. For the same compound, the TGI [10] was greater than 100 µM, the TGI [11] was greater than 100 µM and the TGI [12] was greater than 100 µM. For the same compound, the TGI [13] was greater than 100 µM, the TGI [14] was greater than 100 µM and the TGI [15] was greater than 100 µM. It also gave a TGI [16] greater than 100 µM, a TGI [17] greater than 88.2 µM and a TGI [18] greater than 100 µM. For the same compound, the TGI [19] was greater than 100 µM, the TGI [20] was greater than 100 µM and the TGI [21] was greater than 100 µM. It also gave a TGI [22] greater than 100 µM, a TGI [23] greater than 100 µM and a TGI [24] greater than 58.3 µM. For the same compound, the TGI [25] was greater than 100 µM, the TGI [26] was greater than 100 µM and the TGI [27] was greater than 100 µM. For the same compound, the TGI [28] was greater than 100 µM, the TGI [29] was greater than 100 µM and the TGI [30] was 27.6 µM. For the same compound, the TGI [31] was greater than 100 µM, the TGI [32] was greater than 100 µM and the TGI [33] was greater than 100 µM. For the same compound, the TGI [34] was greater than 100 µM, the TGI [35] was greater than 100 µM and the TGI [36] was greater than 49.8 µM. For the same compound, the TGI [37] was greater than 85.1 µM, the TGI [38] was greater than 100 µM and the TGI [39] was greater than 100 µM. For the same compound, the TGI [40] was greater than 100 µM, the TGI [41] was greater than 100 µM and the TGI [42] was greater than 100 µM. The TGI [43] was greater than 60.3 µM, the TGI [44] was greater than 100 µM and the TGI [45] was greater than 100 µM. For the same compound, the TGI [46] was greater than 69.2 µM, the TGI [47] was greater than 100 µM and the TGI [48] was greater than 100 µM. It also gave a TGI [49] greater than 95.4 µM, a TGI [50] greater than 100 µM and a TGI [51] greater than 100 µM. The TGI [52] was greater than 100 µM, the TGI [53] was greater than 100 µM and the TGI [54] was greater than 65.6 µM. It also gave a TGI [55] greater than 100 µM, a TGI [56] greater than 100 µM and a TGI [57] greater than 100 µM.
Compound `O=C(NO)C(=O)Nc1cc(Cl)ccc1Cl` has a TGI [1] greater than 100 µM, a TGI [2] greater than 100 µM and a TGI [3] greater than 100 µM. It also gave a TGI [4] greater than 100 µM, a TGI [5] greater than 100 µM and a TGI [6] greater than 100 µM. The TGI [7] was greater than 100 µM, the TGI [8] was greater than 100 µM and the TGI [9] was greater than 100 µM. The TGI [10] was greater than 100 µM, the TGI [11] was greater than 100 µM and the TGI [12] was greater than 100 µM. For the same compound, the TGI [13] was 51 µM, the TGI [14] was greater than 100 µM and the TGI [15] was greater than 100 µM. The TGI [16] was greater than 100 µM, the TGI [17] was greater than 100 µM and the TGI [18] was greater than 100 µM. It also gave a TGI [19] greater than 100 µM, a TGI [20] greater than 100 µM and a TGI [21] greater than 100 µM. It also gave a TGI [58] greater than 100 µM, a TGI [22] of 49.1 µM and a TGI [23] greater than 100 µM. The TGI [24] was greater than 100 µM, the TGI [25] was greater than 100 µM and the TGI [26] was greater than 100 µM. The TGI [27] was greater than 100 µM, the TGI [28] was greater than 100 µM and the TGI [29] was 55.3 µM. It also gave a TGI [30] greater than 100 µM, a TGI [31] greater than 100 µM and a TGI [32] greater than 100 µM. The TGI [33] was greater than 100 µM, the TGI [34] was greater than 100 µM and the TGI [35] was greater than 100 µM. It also gave a TGI [36] greater than 100 µM, a TGI [37] greater than 100 µM and a TGI [38] greater than 100 µM. For the same compound, the TGI [39] was greater than 100 µM, the TGI [40] was greater than 100 µM and the TGI [41] was greater than 100 µM. For the same compound, the TGI [42] was greater than 100 µM, the TGI [43] was greater than 100 µM and the TGI [44] was greater than 100 µM. For the same compound, the TGI [45] was greater than 100 µM, the TGI [46] was greater than 100 µM and the TGI [47] was greater than 100 µM. It also gave a TGI [48] greater than 100 µM, a TGI [49] greater than 100 µM and a TGI [50] greater than 100 µM. For the same compound, the TGI [51] was greater than 100 µM, the TGI [52] was greater than 100 µM and the TGI [53] was greater than 100 µM. The TGI [54] was greater than 100 µM, the TGI [55] was greater than 100 µM and the TGI [56] was greater than 100 µM. For the same compound, the TGI [57] was greater than 100 µM.
